Measurements taken from ChEMBL document CHEMBL3085722, “Stereochemical assignment of the fungal metabolites pestalotiopsones D and E through enantiopure synthesis” (J Nat Prod, 2013).
Values after ≈ are worked out from the molar mass of the structure shown.

How the values were obtained:
Type in all cases: functional, organism-based
[1] = tested on: Mycolicibacterium smegmatis; assay: Antibacterial activity against Mycobacterium smegmatis after 18 hrs by turbidity assay
Escherichia coli = assay: Antibacterial activity against Escherichia coli after 18 hrs by turbidity assay
Pseudomonas aeruginosa = assay: Antibacterial activity against Pseudomonas aeruginosa after 18 hrs by turbidity assay
[2] = tested on: Staphylococcus epidermidis; assay: Antibacterial activity against Staphylococcus epidermidis after 18 hrs by turbidity assay

| SMILES | MIC [1] | MIC (Escherichia coli) | MIC (Pseudomonas aeruginosa) | MIC [2] | IC50 [1] | IC50 (Escherichia coli) | IC50 (Pseudomonas aeruginosa) | IC50 [2] |
| --- | --- | --- | --- | --- | --- | --- | --- | --- |
| COC(=O)Cc1cc(OC)cc2c1C(=O)CC(CCCCC[C@@H](C)OC(C)=O)O2 (mixture of isomers) | > 500 µg/mL | > 500 µg/mL | > 500 µg/mL | > 500 µg/mL |  |  |  |  |
| COC(=O)Cc1cc(OC)cc2oc(CCCCC[C@H](C)OC(C)=O)cc(=O)c12 | > 500 µg/mL | > 500 µg/mL | > 500 µg/mL | > 500 µg/mL | > 500 µg/mL | > 500 µg/mL | 465 µg/mL (≈ 1150 µM) | > 500 µg/mL |
| COC(=O)Cc1cc(OC)cc2c1C(=O)CC(CCCCC[C@H](C)OC(C)=O)O2 (mixture of isomers) | > 500 µg/mL | > 500 µg/mL | > 500 µg/mL | > 500 µg/mL | 492 µg/mL | > 500 µg/mL | 445 µg/mL | > 500 µg/mL |
| COC(=O)Cc1cc(O)cc2oc(CCCCC[C@H](C)O)cc(=O)c12 | > 500 µg/mL | > 500 µg/mL | > 500 µg/mL | > 500 µg/mL | > 500 µg/mL | > 500 µg/mL | > 500 µg/mL | > 500 µg/mL |
| CCOC(=O)Cc1cc(O)cc2oc(CCCCC[C@@H](C)O)cc(=O)c12 | > 500 µg/mL | > 500 µg/mL | > 500 µg/mL | > 500 µg/mL |  |  |  |  |
| NC[C@H]1O[C@H](O[C@H]2[C@H](O)[C@@H](O[C@H]3O[C@H](CO)[C@@H](O)[C@H](N)[C@H]3O)[C@H](N)C[C@@H]2N)[C@H](O)[C@@H](O)[C@@H]1O [KANAMYCIN] |  |  |  |  | < 1 µg/mL | < 1 µg/mL | 209 µg/mL (≈ 431 µM) | 90 µg/mL (≈ 186 µM) |

The next lines start with the values.

| MIC [1] | MIC (Escherichia coli) | MIC (Pseudomonas aeruginosa) | MIC [2] | IC50 [1] | IC50 (Escherichia coli) | IC50 (Pseudomonas aeruginosa) | IC50 [2] | SMILES |
| --- | --- | --- | --- | --- | --- | --- | --- | --- |
| > 500 µg/mL | > 500 µg/mL | > 500 µg/mL | > 500 µg/mL |  |  |  |  | COC(=O)Cc1cc(O)cc2oc(CCCCC[C@@H](C)O)cc(=O)c12 |
| > 500 µg/mL | > 500 µg/mL | > 500 µg/mL | > 500 µg/mL |  |  |  |  | COC(=O)Cc1cc(OC)cc2oc(CCCCC[C@@H](C)OC(C)=O)cc(=O)c12 |
| > 500 µg/mL | > 500 µg/mL | > 500 µg/mL | > 500 µg/mL | 484 µg/mL (≈ 1340 µM) | > 500 µg/mL | 440 µg/mL (≈ 1210 µM) | > 500 µg/mL | CCOC(=O)Cc1cc(O)cc2oc(CCCCC[C@H](C)O)cc(=O)c12 |
